Results reported in patent publication US5478817A, “Digitoxigenin and dihydrodigitoxigenin 3β-derivatives and pharmaceutical compositions comprising same for the treatment of cardiovascular disorders” (priority 1992, dated 1995).
Where a name gives a salt, the structure may show the parent alone. Read-outs that look alike come from different tables or passages of the source.

Experiments:
[1] = molecular target: T1, Na^+,K^+ -ATPase receptor (Homo sapiens, UniProt P05023); test: displacement of the specific ^3 H-ouabain binding from the Na^+,K^+ -ATPase receptor
T1 construct: Na^+,K^+ -ATPase receptor purified according to Jorghensen; from tissue
Source text: (§1) To test the affinity for the receptor site of the Na^+,K^+ -ATPase and the agonist or inhibitory activity on the enzyme, the following tests were used: a) displacement of the specific ^3 H-ouabain binding from the Na^+,K^+ -ATPase receptor purified according to Jorghensen (Jorghensen P., BBA, 1974,356, 36) and Erdmann (Erdmann E. et al., Arzneim. Forsh., 1984, 34 (II), 1314); b) inhibition of the activity of the purified Na^+,K^+ -ATPase measured as % of hydrolysis of ^32 P-ATP in presence and in absence of the tested compound (Mall F. et al., Biochem. Pharmacol., 1984, 33, 47).
(§2) The affinity and the inhibitory activity of the aglycone digitoxigenin (DIGI), dihydrodigitoxigenin 20(S) (DIGI 20(S)) and dihydrodigitoxigenin 20(R) (DIGI 20(R)) and some basic 3β-derivatives on the two tests are shown in the following table: […]

[2] = molecular target: T2, purified Na^+,K^+ -ATPase (Homo sapiens, UniProt P05023); test: inhibition of the activity of the purified Na^+,K^+ -ATPase (hydrolysis of ^32 P-ATP); assay type: biochemical
T2 construct: Na^+,K^+ -ATPase receptor purified according to Jorghensen; from tissue
Source text: as §1, §2

[3] = system: spontaneous hypertensive rats (MHS); test: systolic blood pressure and heart rate in hypertensive MHS rats (indirect tail-cuff); assay type: in vivo, rat (MHS); conditions: 20 mg/Kg/os daily for ten days in Methocel 0.5% w/v, 7 MHS rats; for SBP (systolic blood pressure): controls 171 +/- 4.5; for HR (heart rate): controls 384 +/- 11.0
Protocol: The ability of these compounds to lower blood pressure in adult hypertensive MHS rats was tested by the following method:
systolic blood pressure (SBP) and heart rate (HR) were measured by an indirect tail-cuff method in three-month old hypertensive MHS rats before beginning treatment (basal values). The rats were then subdivided in two groups of 7 animals each, one receiving the compound and the other, the control group, receiving only the vehicle. The compound, suspended in METHOCEL® 0.5% (w/v), for ten days, was administered daily by mouth. SBP and HR were measured daily 6 and 24 hours after the treatment. When ten-day treatment washout had been under way for at least two days, whether the treatment mantains SBP low or re-establish the basal values was verified. […]

[4] = ^3 H-ouabain displacement, purified Na^+,K^+ -ATPase, read-out: Binding ^3 H-Ouab. Displacement log IC50 (converted)
[5] = % hydrolysis of ^32 P-ATP, purified Na^+,K^+ -ATPase, read-out: Inhibitory Activity log IC50 (converted)

SMILES	IC50 [1] [nM]	IC50 [2] [nM]	SBP (systolic blood pressure) [3]	HR (heart rate) [3]	IC50 [1, 4] [nM]	IC50 [2, 5] [nM]
C[C@]12CC[C@H](OCCCN)C[C@H]1CC[C@@H]1[C@@H]2CC[C@]2(C)[C@@H](C3=CC(=O)OC3)CC[C@]12O [Comp. I-d, 3β-(3-Aminopropoxy)-14β-hydroxy-5β-card-20(22)-enolide oxalate]	126	631	148 +/- 3.2 mm Hg	388 +/- 12.0 beats/min.		
C[C@]12CC[C@H](SCCCN)C[C@H]1CC[C@@H]1[C@@H]2CC[C@]2(C)[C@@H](C3=CC(=O)OC3)CC[C@]12O [Comp. I-k, 3β-(3-Aminopropylthio)-14β-hydroxy-5β-card-20(22)-enolide oxalate]	79.4	501	155 +/- 4.2 mm Hg	385 +/- 11.0 beats/min.		
C[C@]12CC[C@H](SCCCN)C[C@H]1CC[C@@H]1[C@@H]2CC[C@]2(C)[C@@H]([C@H]3COC(=O)C3)CC[C@]12O [Comp. I-l, 3β-(3-Aminopropylthio)-14β-hydroxy-5β-20(S)-cardanolide oxalate]			147 +/- 4.8 mm Hg	390 +/- 10.0 beats/min.	251	2000
C[C@]12CC[C@H](SCCN)C[C@H]1CC[C@@H]1[C@@H]2CC[C@]2(C)[C@@H]([C@H]3COC(=O)C3)CC[C@]12O [Comp. I-j, 3β-(2-Aminoethylthio)-14β-hydroxy-5β-20(S) cardanolide oxalate]					316	3160
C[C@]12CC[C@H](SCC(O)CO)C[C@H]1CC[C@@H]1[C@@H]2CC[C@]2(C)[C@@H](C3=CC(=O)OC3)CC[C@]12O (stereo partly drawn) [Comp. I-s, 3β-(2,3-Dihydroxypropylthio)-14β-hydroxy-5β-card-20(22)-enolide]	79.4	631	149 +/- 4.1 mm Hg	394 +/- 6.3 beats/min.		
C[C@]12CC[C@H](SCC[N+](C)(C)C)C[C@H]1CC[C@@H]1[C@@H]2CC[C@]2(C)[C@@H](C3=CC(=O)OC3)CC[C@]12O [Comp. I-p, 3β-(2-(Trimethylammonium)ethylthio)-14β-hydroxy-5β-card-20(22)-enolide chloride]	100	794	150 +/- 3.5 mm Hg	378 +/- 9.3 beats/min.		
C[C@]12CC[C@H](SCCN)C[C@H]1CC[C@@H]1[C@@H]2CC[C@]2(C)[C@@H](C3=CC(=O)OC3)CC[C@]12O [Comp. I-i, 3β-(2-Aminoethylthio)-14β-hydroxy-5β-card-20(22)-enolide oxalate]	100	631				
C[C@]12CC[C@H](SCCN3CCCC3)C[C@H]1CC[C@@H]1[C@@H]2CC[C@]2(C)[C@@H](C3=CC(=O)OC3)CC[C@]12O [Comp. I-n, 3β-(2-(1-Pyrrolidinyl)ethylthio)-14β-hydroxy-5β-card-20(22)-enolide sesquioxalate]	200	398				
C[C@]12CC[C@H](SCCCN3CCCC3)C[C@H]1CC[C@@H]1[C@@H]2CC[C@]2(C)[C@@H](C3=CC(=O)OC3)CC[C@]12O [Comp. I-q, 3β-(3-(1-Pyrrolidinyl)propylthio)-14β-hydroxy-5β-card-20(22)-enolide oxalate]	158	251				
C[C@]12CC[C@H](OCC[N+](C)(C)C)C[C@H]1CC[C@@H]1[C@@H]2CC[C@]2(C)[C@@H](C3=CC(=O)OC3)CC[C@]12O [Comp. I-c, 3β-(2-(trimethylammonium)ethoxy)-14β-hydroxy-5β-card-20(22)-enolide chloride]	251	501	152 +/- 5.0 mm Hg	375 +/- 9.0 beats/min.		
C[C@]12CC[C@H](O)C[C@H]1CC[C@@H]1[C@@H]2CC[C@]2(C)[C@@H](C3=CC(=O)OC3)CC[C@]12O [DIGI, digitoxigenin]	316	316	173 +/- 4.0 mm Hg	380 +/- 10.0 beats/min.		
C[C@]12CC[C@H](SCCCN)C[C@H]1CC[C@@H]1[C@@H]2CC[C@]2(C)[C@@H]([C@@H]3COC(=O)C3)CC[C@]12O [Comp. I-m, 3β-Aminopropylthio )-14β-hydroxy-5β-20(R)-cardanolide oxalate]					398	2510
C[C@]12CC[C@H](OCCN3CCCC3)C[C@H]1CC[C@@H]1[C@@H]2CC[C@]2(C)[C@@H](C3=CC(=O)OC3)CC[C@]12O [Comp. I-a, 3β-(2-(1-Pyrrolidinyl)ethoxy)-14β-hydroxy-5β-card-20(22)-enolide]	63.1	251				
CN(C)CCCO[C@H]1CC[C@@]2(C)[C@H](CC[C@@H]3[C@@H]2CC[C@]2(C)[C@@H](C4=CC(=O)OC4)CC[C@]32O)C1 [Comp. I-b, 3β-(3-Dimethylaminopropoxy)-14β-hydroxy-5β-card-20(22)-enolide]	200	5010				
C[C@]12CC[C@H](O)C[C@H]1CC[C@@H]1[C@@H]2CC[C@]2(C)[C@@H]([C@H]3COC(=O)C3)CC[C@]12O [DIGI 20(S), dihydrodigitoxigenin 20(S), reference compound]	1580	2510				
C[C@]12CC[C@H](SCCCN3CCNCC3)C[C@H]1CC[C@@H]1[C@@H]2CC[C@]2(C)[C@@H](C3=CC(=O)OC3)CC[C@]12O [Comp. I-r, 3β-(3-(1-Piperazinyl)propylthio)-14β-hydroxy-5β-card-20(22)-enolide]	316	631				
C[C@]12CC[C@H](OCCC(=N)N)C[C@H]1CC[C@@H]1[C@@H]2CC[C@]2(C)[C@@H](C3=CC(=O)OC3)CC[C@]12O [Comp. I-f, 3β-(2-Amidinoethoxy)-14β-hydroxy-5β-card-20(22)-enolide oxalate]	158	1580	153 +/- 5.1 mm Hg	378 +/- 8.5 beats/min.		
C[C@]12CC[C@H](SCC(O)CN)C[C@H]1CC[C@@H]1[C@@H]2CC[C@]2(C)[C@@H](C3=CC(=O)OC3)CC[C@]12O (stereo partly drawn) [Comp. I-u, 3β-(3-Amino-2-hydroxypropylthio)-14β-hydroxy-5β-card-20(22)-enolide]	50.1	251	152 +/- 5.2 mm Hg	377 +/- 9.0 beats/min.		
CN(C)CCOCCO[C@H]1CC[C@@]2(C)[C@H](CC[C@@H]3[C@@H]2CC[C@]2(C)[C@@H](C4=CC(=O)OC4)CC[C@]32O)C1 [Comp. I-e, 3β-(2-(2-dimethylaminoethoxy)ethoxy)-14β-hydroxy-5β-card-20(22)-enolide]	100	1000	149 +/- 4.8 mm Hg	395 +/- 10.0 beats/min.		
C[C@]12CC[C@H](SCC3CO3)C[C@H]1CC[C@@H]1[C@@H]2CC[C@]2(C)[C@@H](C3=CC(=O)OC3)CC[C@]12O (stereo partly drawn) [Comp. I-h, 3β-(2,3-Epoxy)propylthio-14β-hydroxy-5β-card-20(22)-enolide]	63.1	631	157 +/- 6.0 mm Hg	382 +/- 6.8 beats/min.		
C[C@]12CC[C@H](O)C[C@H]1CC[C@@H]1[C@@H]2CC[C@]2(C)[C@@H]([C@@H]3COC(=O)C3)CC[C@]12O [DIGI 20(R), dihydrodigitoxigenin 20(R), reference compound]	2510	7940				
